Assay results from US9115101B2 (Genentech, Inc., priority 2012, dated 2015).

Target: T1, RORc ligand binding domain (Homo sapiens, UniProt P51449)
T1 construct: host or cells: E. coli
T1 sequence (P51449 269-508 limits assumed): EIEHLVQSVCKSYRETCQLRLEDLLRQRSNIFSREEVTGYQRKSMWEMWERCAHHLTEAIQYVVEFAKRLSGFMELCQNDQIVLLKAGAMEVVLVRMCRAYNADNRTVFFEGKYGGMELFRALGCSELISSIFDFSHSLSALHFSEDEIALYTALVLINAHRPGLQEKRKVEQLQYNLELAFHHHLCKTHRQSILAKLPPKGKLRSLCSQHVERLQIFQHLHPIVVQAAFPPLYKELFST
Test: In Vitro RORc Ligand Binding Assay (25-[3H]hydroxycholesterol radioligand filtration)
Settings: In Vitro RORc Ligand Binding Assay; Table 4; read-out: RORc IC50

| IC50 [nM] | SMILES |
| --- | --- |
| 156 | CC(=O)N1CCN(c2ccc(CN3[C@@H](C)CCC(c4ccccc4)S3(=O)=O)c(F)c2)C[C@@H]1C(N)=O (stereo partly drawn) [Example 375, (R)-1-Acetyl-4-[3-fluoro-4-((3S)-methyl-1,1-dioxo-6-phenyl-[1,2]thiazinan-2-ylmethyl)-phenyl]-piperazine-2-carboxylic acid amide] |
| 751 | CC(=O)N1CCN(c2ccc(CN3CCOCC(c4ccccc4)S3(=O)=O)c(F)c2)CC1 (single isomer, unassigned) [Example 22, 1-{4-[4-(4,4-Dioxo-3-phenyl-[1,4,5]oxathiazepan-5-ylmethyl)-3-fluoro-phenyl]-piperazin-1-yl}-ethanone] |
| 1040 | CC(=O)N1CCN(c2ccc(CN3CC4(COC4)CC(c4ccccc4)S3(=O)=O)c(F)c2)CC1 (single isomer, unassigned) [Example 258, 1-(4-(4-((7,7-dioxido-8-phenyl-2-oxa-7-thia-6-azaspiro[3.5]nonan-6-yl)methyl)-3-fluorophenyl)piper-azin-1-yl)ethanone] |
| 93 | C[C@H]1CCC(c2ccccc2)S(=O)(=O)N1Cc1ccc(N2CC3(CCOC3)C2)cc1F (single isomer, unassigned) [Example 95] |
| 138 | CO[C@@H](C)C(=O)N1CCN(c2ccc(CN3[C@@H](C)CCC(c4ccccc4)S3(=O)=O)c(F)c2)CC1 (single isomer, unassigned) [Example 77] |
| 4000 | CC(=O)N1CCCN(C(=O)c2ccc(CN3[C@@H](C)CCC(c4ccccc4)S3(=O)=O)cc2)CC1 (stereo partly drawn) [Example 285, 1-{4-[4-((3S)-Methyl-1,1-dioxo-6-phenyl-[1,2]thiazinan-2-ylmethyl)-benzoyl]-[1,4]diazepan-1-yl}-ethanone] |
| 133 | COc1ccc(C2CC[C@H](C)N(Cc3ccc(N4CCN(C(C)=O)CC4)cc3F)S2(=O)=O)cc1 (single isomer, unassigned) [Example 176] |
| 1500 | CC(=O)N1CCN(c2ccc(CN3[C@@H](C)CCC(c4ccccc4)S3(=O)=O)cn2)CC1 (single isomer, unassigned) [Example 43] |
| 145 | C[C@H]1CCC(c2ccccc2)S(=O)(=O)N1Cc1ccc(N2CCn3cncc3C2)cc1F (single isomer, unassigned) [Example 154] |
| 272 | C[C@H]1CCC(c2ccccc2)S(=O)(=O)N1Cc1ccc(N2CCc3[nH]ncc3C2)cc1F (single isomer, unassigned) [Example 156] |
| 116 | COc1cccc(C2CC[C@H](C)N(Cc3ccc(N4CCN(C(C)=O)CC4)cc3F)S2(=O)=O)c1 (single isomer, unassigned) [Example 191] |
| 82 | CC(=O)N1CCN(c2ccc(CN3[C@@H](C)CCC(c4ccccc4)S3(=O)=O)c(F)c2)C[C@@H]1CO (stereo partly drawn) [Example 262, 1-{4-[3-Fluoro-4-((3S)-methyl-1,1-dioxo-6-phenyl-[1,2]thiazinan-2-ylmethyl)-phenyl]-2-hydroxymethyl-piperazin-1-yl}-ethanone] |
| 22 | CC(=O)N1CCN(c2ccc(CN3CCC(C)CC(c4ccccc4)S3(=O)=O)c(F)c2)CC1 (single isomer, unassigned) [Example 331, 1-{4-[3-Fluoro-4-(5-methyl-1,1-dioxo-7-phenyl-[1,2]thiazepan-2-ylmethyl)-phenyl]-piperazin-1-yl}-ethanone] |
| 24 | CC(=O)N1CCN(c2ccc(CN3[C@@H](C)CCC(c4cccc(C)c4)S3(=O)=O)c(F)c2)CC1 (single isomer, unassigned) [Example 193] |
| 167 | COCC(=O)N1CCN(c2ccc(CN3[C@@H](C)CCC(c4ccccc4)S3(=O)=O)c(F)c2)CC1 (single isomer, unassigned) [Example 75] |
| 15 | C[C@H]1CCC(c2ccccc2)S(=O)(=O)N1Cc1ccc(N2CCN(C(=O)C3CC3)CC2)cc1F (single isomer, unassigned) [Example 59] |
| 9 | C[C@H]1CCC(c2ccccc2)S(=O)(=O)N1Cc1ccc(NC2CCN(S(C)(=O)=O)CC2)cc1 (stereo partly drawn) [Example 216, (1-Methanesulfonyl-piperidin-4-yl)-[4-((3S)-3-methyl-1,1-dioxo-6-phenyl-[1,2]thiazinan-2-ylmethyl)-phenyl]-amine] |
| 32 | CC(=O)N1CCN(c2ccc(CN3CCC(C)CC(c4ccccc4)S3(=O)=O)c(F)c2)CC1 (single isomer, unassigned) [Example 333, 1-{4-[3-Fluoro-4-(5-methyl-1,1-dioxo-7-phenyl-[1,2]thiazepan-2-ylmethyl)-phenyl]-piperazin-1-yl}-ethanone] |
| 1490 | C[C@H]1CCC(c2ccccc2)S(=O)(=O)N1Cc1ccc(C(=O)NC2CCS(=O)(=O)CC2)cc1 (stereo partly drawn) [Example 386, N-(1,1-Dioxo-hexahydro-1-thiopyran-4-yl)-4-((3S)-methyl-1,1-dioxo-6-phenyl-[1,2]thiazinan-2-ylmethyl)-benzamide] |
| 149 | CC(=O)N1CCN(c2ccc(CN3CCCC(c4ccccc4)S3(=O)=O)c(F)c2)CC1 (stereo not shown) [Example 10, 1-{4-[4-(1,1-Dioxo-6-phenyl-[1,2]thiazinan-2-ylmethyl)-3-fluoro-phenyl]-piperazin-1-yl}-ethanone] |
| 11 | C[C@H]1CCC(c2ccccc2)S(=O)(=O)N1Cc1ccc(N2CCC(n3ccnc3)CC2)cc1F (stereo partly drawn) [Example 217, (3S)-2-[2-Fluoro-4-(4-imidazol-1-yl-piperidin-1-yl)-benzyl]-3-methyl-6-phenyl-[1,2]thiazinane 1,1-dioxide] |
| 26 | CC(=O)N1CCN(c2ccc(CN3[C@H](C)CCC(c4ccccc4)S3(=O)=O)c(F)c2)CC1 (single isomer, unassigned) [Example 20] |
| 87 | CC(=O)N1CCN(c2ccc(CN3CCCCC(c4ccccc4)S3(=O)=O)cc2)CC1 (single isomer, unassigned) [Example 306, 1-{4-[4-(1,1-Dioxo-7-phenyl-[1,2]thiazepan-2-ylmethyl)-phenyl]-piperazin-1-yl}-ethanone] |
| 1060 | C[C@H]1CCC(c2ccccc2)S(=O)(=O)N1Cc1ccc(C(=O)N2CC3(CCOCC3)C2)cc1 (stereo partly drawn) [Example 370, [4-((3S)-Methyl-1,1-dioxo-6-phenyl-[1,2]thiazinan-2-ylmethyl)-phenyl]-(7-oxa-2-aza-spiro[3.5]non-2-yl)-methanone] |
| 15 | C[C@H]1CCC(c2ccccc2)S(=O)(=O)N1Cc1ccc(N2CCC(C#N)CC2)cc1F (single isomer, unassigned) [Example 86] |
| 697 | COCCNC(=O)[C@@H]1CN(c2ccc(CN3[C@@H](C)CCC(c4ccccc4)S3(=O)=O)c(F)c2)CCN1C(C)=O (stereo partly drawn) [Example 393, (S)-1-Acetyl-4-[3-fluoro-4-((3S)-methyl-1,1-dioxo-6-phenyl-[1,2]thiazinan-2-ylmethyl)-phenyl]-piperazine-2-carboxylic acid (2-methoxy-ethyl)-amide] |
| 310 | CC(=O)N1CCN(c2ccc(CN3[C@H](C)CC(c4ccccc4)S3(=O)=O)c(F)c2)CC1 (single isomer, unassigned) [Example 66] |
| 17 | CC(=O)N1CCN(c2ccc(CN3[C@@H](C)CCC(c4cccc(Cl)c4)S3(=O)=O)c(F)c2)CC1 (single isomer, unassigned) [Example 200] |
| 37 | CS(=O)(=O)N1CCC(Nc2ccc(CN3CC4(CC4)CC(c4ccccc4)S3(=O)=O)c(F)c2)CC1 (single isomer, unassigned) [Example 249, 5-(2-fluoro-4-((1-(methylsulfonyl)piperidin-4-yl)amino)benzyl)-7-phenyl-6-thia-5-azaspiro[2.5]octane 6,6-dioxide] |

| SMILES | IC50 [nM] |
| --- | --- |
| C[C@H]1CCC(c2ccccc2)S(=O)(=O)N1Cc1ccc(C(=O)N2C3CNC(=O)C2C3)cc1 (stereo partly drawn) [Example 360, 6-[4-((3S)-Methyl-1,1-dioxo-6-phenyl-[1,2]thiazinan-2-ylmethyl)-benzoyl]-3,6-diaza-bicyclo[3.1.1]heptan-2-one] | 3450 |

Same assay, conditions: RORc IC50

| IC50 [nM] | SMILES |
| --- | --- |
| 289 | O=S1(=O)[C@H](c2ccccc2)CCC2(CC2)N1Cc1ccc(N2CCC(n3cnnc3)CC2)cc1F [Example 421, (S)-4-[2-Fluoro-4-(4-[1,2,4]triazol-4-yl-piperidin-1-yl)-benzyl]-6-phenyl-5-thia-4-aza-spiro[2.5]octane 5,5-dioxide] |

Same assay, conditions: read-out: RORc IC50

| IC50 [nM] | SMILES |
| --- | --- |
| 148 | CCOC(=O)N1CCC(C(=O)Nc2ccc(CN3[C@@H](C)CCC(c4ccccc4)S3(=O)=O)c(F)c2)CC1 (stereo partly drawn) [Example 456, 4-[3-Fluoro-4-((3S)-methyl-1,1-dioxo-6-phenyl-[1,2]thiazinan-2-ylmethyl)-phenylcarbamoyl]-piperidine-1-carboxylic acid ethyl ester] |
| 878 | C[C@H]1CCC(c2ccccc2)S(=O)(=O)N1Cc1ccc(N2CCC(N3CCCC3=O)CC2)cc1F (stereo partly shown) |
| 1110 | C[C@H]1CCC(c2ccccc2)S(=O)(=O)N1Cc1ccc(OC2CCOCC2)cc1 (stereo partly drawn) [Example 432, (3S)-Methyl-6-phenyl-2-[4-(tetrahydro-pyran-4-yloxy)-benzyl]-[1,2]thiazinane 1,1-dioxide] |
| 453 | COC(=O)C1(n2cnnc2)CCN(c2ccc(CN3[C@@H](C)CCC(c4ccccc4)S3(=O)=O)c(F)c2)CC1 (stereo partly drawn) [Example 426, 1-[3-Fluoro-4-((3S)-methyl-1,1-dioxo-6-phenyl-[1,2]thiazinan-2-ylmethyl)-phenyl]-4-[1,2,4]triazol-4-yl-piperidine-4-carboxylic acid methyl ester] |
| 88 | C[C@H]1CCC(c2ccccc2)S(=O)(=O)N1Cc1ccc(N2CC(n3cnnc3)C2)cc1F (stereo partly drawn) [Example 428, 2-[2-Fluoro-4-(3-[1,2,4]triazol-4-yl-azetidin-1-yl)-benzyl]-(3S)-methyl-6-phenyl-[1,2]thiazinane 1,1-dioxide] |
| 427 | C[C@H]1CCC(c2ccccc2)S(=O)(=O)N1Cc1ccc(N2CC3(CC(n4cnnc4)C3)C2)cc1F (stereo partly drawn) [Example 424, 2-[3-Fluoro-4-((3S)-methyl-1,1-dioxo-6-phenyl-[1,2]thiazinan-2-ylmethyl)-phenyl]-6-[1,2,4]triazol-4-yl-2-aza-spiro[3.3]heptane] |
